In article PMC6591251, “Discovery of potent necroptosis inhibitors targeting RIPK1 kinase activity for the treatment of inflammatory disorder and cancer metastasis” (Cell Death & Disease, 2019):

Columns and labels:
Experiment in all cases: RBC kinase panel
Type in all cases: biochemical
Settings in all cases: ATP 10 μM, Data1, Data2
[1] = target: T1, MAK (Homo sapiens, UniProt P20794)
T1 construct: purchased Reaction Biology Corporation
Method in brief: (§1)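 Profiling covered 369 human kinases, each assayed in duplicate with the compound present at 1 μM and ATP at 10 μM.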

[2] = target: T2, ITK (Homo sapiens, UniProt Q08881)
T2 construct: purchased Reaction Biology Corporation
Method in brief: as §1

[3] = target: T3, SRMS (Homo sapiens, UniProt Q9H3Y6)
T3 construct: purchased Reaction Biology Corporation
Method in brief: as §1

[4] = target: T4, ERBB4/HER4 (Homo sapiens, UniProt Q15303)
T4 construct: purchased Reaction Biology Corporation
Method in brief: as §1

[5] = target: T5, c-MER (Homo sapiens, UniProt Q12866)
T5 construct: purchased Reaction Biology Corporation
Method in brief: as §1

[6] = target: T6, ABL1 (Homo sapiens, UniProt P00519)
T6 construct: purchased Reaction Biology Corporation
Method in brief: as §1

[7] = target: T7, STK39/STLK3 (Homo sapiens, UniProt Q9UEW8)
T7 construct: purchased Reaction Biology Corporation
Method in brief: as §1

[8] = target: T8, PIM2 (Homo sapiens, UniProt Q9P1W9)
T8 construct: purchased Reaction Biology Corporation
Method in brief: as §1

[9] = target: T9, FMS (Homo sapiens, UniProt P07333)
T9 construct: purchased Reaction Biology Corporation
Method in brief: as §1

[10] = target: T10, FGFR1 (Homo sapiens, UniProt P11362)
T10 construct: purchased Reaction Biology Corporation
Method in brief: as §1

[11] = target: T11, CDC7/DBF4 (Homo sapiens, UniProt O00311)
T11 construct: purchased Reaction Biology Corporation
Method in brief: as §1

[12] = target: T12, MARK2/PAR-1Ba (Homo sapiens, UniProt Q7KZI7)
T12 construct: purchased Reaction Biology Corporation
Method in brief: as §1

[13] = target: T13, DYRK3 (Homo sapiens, UniProt O43781)
T13 construct: purchased Reaction Biology Corporation
Method in brief: as §1

[14] = target: T14, IRAK4 (Homo sapiens, UniProt Q9NWZ3)
T14 construct: purchased Reaction Biology Corporation
Method in brief: as §1

[15] = target: T15, p70S6K/RPS6KB1 (Homo sapiens, UniProt P23443)
T15 construct: purchased Reaction Biology Corporation
Method in brief: as §1

[16] = target: T16, ROCK2 (Homo sapiens, UniProt O75116)
T16 construct: purchased Reaction Biology Corporation
Method in brief: as §1

[17] = target: T17, TESK1 (Homo sapiens, UniProt Q15569)
T17 construct: purchased Reaction Biology Corporation
Method in brief: as §1

[18] = target: T18, ERK2/MAPK1 (Homo sapiens, UniProt P28482)
T18 construct: purchased Reaction Biology Corporation
Method in brief: as §1

[19] = target: T19, IKKe/IKBKE (Homo sapiens, UniProt Q14164)
T19 construct: purchased Reaction Biology Corporation
Method in brief: as §1

[20] = target: T20, MSK1/RPS6KA5 (Homo sapiens, UniProt O75582)
T20 construct: purchased Reaction Biology Corporation
Method in brief: as §1

[21] = target: T21, ARAF (Homo sapiens, UniProt P10398)
T21 construct: purchased Reaction Biology Corporation
Method in brief: as §1

[22] = target: T22, CK1epsilon (Homo sapiens, UniProt P49674)
T22 construct: purchased Reaction Biology Corporation
Method in brief: as §1

[23] = target: T23, DDR2 (Homo sapiens, UniProt Q16832)
T23 construct: purchased Reaction Biology Corporation
Method in brief: as §1

[24] = target: T24, CDK16/cyclin Y (PCTAIRE) (Homo sapiens, UniProt Q00536)
T24 construct: purchased Reaction Biology Corporation
Method in brief: as §1

[25] = target: T25, GRK5 (Homo sapiens, UniProt P34947)
T25 construct: purchased Reaction Biology Corporation
Method in brief: as §1

[26] = target: T26, JNK3 (Homo sapiens, UniProt P53779)
T26 construct: purchased Reaction Biology Corporation
Method in brief: as §1

[27] = target: T27, MAPKAPK3 (Homo sapiens, UniProt Q16644)
T27 construct: purchased Reaction Biology Corporation
Method in brief: as §1

[28] = target: T28, RON/MST1R (Homo sapiens, UniProt Q04912)
T28 construct: purchased Reaction Biology Corporation
Method in brief: as §1

[29] = target: T29, EPHA1 (Homo sapiens, UniProt P21709)
T29 construct: purchased Reaction Biology Corporation
Method in brief: as §1

[30] = target: T30, MLCK/MYLK (Homo sapiens, UniProt Q15746)
T30 construct: purchased Reaction Biology Corporation
Method in brief: as §1

[31] = target: T31, MSSK1/STK23 (Homo sapiens, UniProt Q9UPE1)
T31 construct: purchased Reaction Biology Corporation
Method in brief: as §1

[32] = target: T32, SRPK2 (Homo sapiens, UniProt P78362)
T32 construct: purchased Reaction Biology Corporation
Method in brief: as §1

[33] = target: T33, CDK4/cyclin D1 (Homo sapiens, UniProt P11802)
T33 construct: purchased Reaction Biology Corporation
Method in brief: as §1

T31 sequence (Q9UPE1 whole entry): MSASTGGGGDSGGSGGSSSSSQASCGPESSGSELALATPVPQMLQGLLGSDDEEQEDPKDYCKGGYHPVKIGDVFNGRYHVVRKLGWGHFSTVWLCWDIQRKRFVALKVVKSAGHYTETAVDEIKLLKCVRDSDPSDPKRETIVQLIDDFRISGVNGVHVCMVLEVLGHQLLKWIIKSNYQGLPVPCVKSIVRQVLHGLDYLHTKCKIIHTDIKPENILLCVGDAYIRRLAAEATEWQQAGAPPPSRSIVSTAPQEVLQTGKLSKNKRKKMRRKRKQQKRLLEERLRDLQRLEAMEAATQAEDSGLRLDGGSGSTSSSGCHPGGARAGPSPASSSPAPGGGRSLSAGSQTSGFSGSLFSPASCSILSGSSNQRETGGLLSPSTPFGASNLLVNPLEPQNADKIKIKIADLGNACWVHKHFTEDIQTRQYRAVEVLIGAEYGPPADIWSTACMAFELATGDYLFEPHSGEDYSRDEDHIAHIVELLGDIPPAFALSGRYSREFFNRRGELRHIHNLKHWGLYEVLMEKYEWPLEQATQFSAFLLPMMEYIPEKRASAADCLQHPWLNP
T2 sequence (Q08881 whole entry): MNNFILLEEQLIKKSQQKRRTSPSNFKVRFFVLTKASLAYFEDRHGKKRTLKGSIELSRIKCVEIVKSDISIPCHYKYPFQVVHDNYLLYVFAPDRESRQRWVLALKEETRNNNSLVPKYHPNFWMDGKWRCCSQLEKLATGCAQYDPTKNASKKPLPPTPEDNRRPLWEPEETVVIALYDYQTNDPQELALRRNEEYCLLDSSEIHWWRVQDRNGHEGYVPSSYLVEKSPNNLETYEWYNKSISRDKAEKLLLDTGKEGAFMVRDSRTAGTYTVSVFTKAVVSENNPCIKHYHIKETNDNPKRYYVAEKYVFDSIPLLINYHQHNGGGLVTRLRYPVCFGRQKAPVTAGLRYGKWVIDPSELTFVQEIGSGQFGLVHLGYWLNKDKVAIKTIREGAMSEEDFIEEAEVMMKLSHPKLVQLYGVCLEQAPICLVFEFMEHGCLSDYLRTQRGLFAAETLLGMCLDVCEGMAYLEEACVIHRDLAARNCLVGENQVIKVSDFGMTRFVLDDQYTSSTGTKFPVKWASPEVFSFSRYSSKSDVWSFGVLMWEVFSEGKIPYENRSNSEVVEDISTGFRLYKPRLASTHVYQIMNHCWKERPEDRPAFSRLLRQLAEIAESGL
T21 sequence (P10398 whole entry): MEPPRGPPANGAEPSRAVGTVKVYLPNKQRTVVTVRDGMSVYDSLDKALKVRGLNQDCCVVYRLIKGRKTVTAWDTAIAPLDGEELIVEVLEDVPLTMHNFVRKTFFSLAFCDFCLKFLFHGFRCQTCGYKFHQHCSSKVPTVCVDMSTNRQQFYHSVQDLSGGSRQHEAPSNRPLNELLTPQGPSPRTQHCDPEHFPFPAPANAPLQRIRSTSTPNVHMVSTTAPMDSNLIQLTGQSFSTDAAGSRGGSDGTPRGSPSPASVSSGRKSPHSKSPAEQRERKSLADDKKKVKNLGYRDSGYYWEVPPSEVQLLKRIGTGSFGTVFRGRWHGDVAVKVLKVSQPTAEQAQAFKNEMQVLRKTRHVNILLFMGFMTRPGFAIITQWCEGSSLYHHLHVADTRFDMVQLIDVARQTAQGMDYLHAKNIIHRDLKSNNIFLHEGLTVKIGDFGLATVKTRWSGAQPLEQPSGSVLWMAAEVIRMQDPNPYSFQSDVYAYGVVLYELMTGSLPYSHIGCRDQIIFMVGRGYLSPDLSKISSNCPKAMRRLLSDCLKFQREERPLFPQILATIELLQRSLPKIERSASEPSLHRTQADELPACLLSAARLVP
T3 sequence (Q9H3Y6 whole entry): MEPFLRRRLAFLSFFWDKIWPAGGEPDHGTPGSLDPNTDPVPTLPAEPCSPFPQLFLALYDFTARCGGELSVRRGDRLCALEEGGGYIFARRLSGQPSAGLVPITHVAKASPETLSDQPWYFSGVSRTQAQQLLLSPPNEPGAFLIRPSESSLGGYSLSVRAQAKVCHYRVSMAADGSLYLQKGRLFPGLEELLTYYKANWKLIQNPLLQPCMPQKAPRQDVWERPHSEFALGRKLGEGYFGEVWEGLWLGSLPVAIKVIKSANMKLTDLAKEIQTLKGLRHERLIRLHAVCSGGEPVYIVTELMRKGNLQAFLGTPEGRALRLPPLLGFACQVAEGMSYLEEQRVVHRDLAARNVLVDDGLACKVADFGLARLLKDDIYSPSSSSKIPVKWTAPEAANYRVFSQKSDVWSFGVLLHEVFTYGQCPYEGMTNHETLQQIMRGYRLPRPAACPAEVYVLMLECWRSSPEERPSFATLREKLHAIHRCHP
T22 sequence (P49674 whole entry): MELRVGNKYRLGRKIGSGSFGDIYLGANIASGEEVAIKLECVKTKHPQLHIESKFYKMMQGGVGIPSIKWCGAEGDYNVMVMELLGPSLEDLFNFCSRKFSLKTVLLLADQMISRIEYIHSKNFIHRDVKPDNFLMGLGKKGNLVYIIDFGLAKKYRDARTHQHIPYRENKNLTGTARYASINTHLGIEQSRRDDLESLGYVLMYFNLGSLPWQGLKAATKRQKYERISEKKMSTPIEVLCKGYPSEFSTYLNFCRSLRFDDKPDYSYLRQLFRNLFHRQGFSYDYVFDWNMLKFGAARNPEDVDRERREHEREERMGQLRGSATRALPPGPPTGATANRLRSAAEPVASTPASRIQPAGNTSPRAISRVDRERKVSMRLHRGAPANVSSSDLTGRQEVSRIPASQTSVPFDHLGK
T12 sequence (Q7KZI7 whole entry): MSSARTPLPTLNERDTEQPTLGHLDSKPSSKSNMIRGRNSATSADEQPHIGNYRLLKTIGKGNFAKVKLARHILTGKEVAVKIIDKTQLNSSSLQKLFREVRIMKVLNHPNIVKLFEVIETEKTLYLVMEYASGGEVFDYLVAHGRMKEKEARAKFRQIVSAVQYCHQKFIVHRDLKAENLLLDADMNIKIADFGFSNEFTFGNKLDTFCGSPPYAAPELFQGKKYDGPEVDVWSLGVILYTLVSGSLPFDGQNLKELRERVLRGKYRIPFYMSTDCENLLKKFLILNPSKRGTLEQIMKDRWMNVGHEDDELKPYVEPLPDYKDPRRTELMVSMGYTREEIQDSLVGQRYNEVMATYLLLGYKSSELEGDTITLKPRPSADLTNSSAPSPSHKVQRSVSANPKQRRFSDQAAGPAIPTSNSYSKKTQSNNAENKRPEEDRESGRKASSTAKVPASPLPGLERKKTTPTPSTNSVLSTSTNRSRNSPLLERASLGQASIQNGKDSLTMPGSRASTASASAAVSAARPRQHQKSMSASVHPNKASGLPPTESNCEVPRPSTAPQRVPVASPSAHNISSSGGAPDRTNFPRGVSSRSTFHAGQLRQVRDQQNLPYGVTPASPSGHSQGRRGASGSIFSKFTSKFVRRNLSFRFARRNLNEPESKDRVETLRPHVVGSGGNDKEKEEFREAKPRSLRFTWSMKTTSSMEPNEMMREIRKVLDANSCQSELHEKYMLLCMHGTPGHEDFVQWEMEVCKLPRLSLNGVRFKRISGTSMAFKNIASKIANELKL
T9 sequence (P07333 20-972): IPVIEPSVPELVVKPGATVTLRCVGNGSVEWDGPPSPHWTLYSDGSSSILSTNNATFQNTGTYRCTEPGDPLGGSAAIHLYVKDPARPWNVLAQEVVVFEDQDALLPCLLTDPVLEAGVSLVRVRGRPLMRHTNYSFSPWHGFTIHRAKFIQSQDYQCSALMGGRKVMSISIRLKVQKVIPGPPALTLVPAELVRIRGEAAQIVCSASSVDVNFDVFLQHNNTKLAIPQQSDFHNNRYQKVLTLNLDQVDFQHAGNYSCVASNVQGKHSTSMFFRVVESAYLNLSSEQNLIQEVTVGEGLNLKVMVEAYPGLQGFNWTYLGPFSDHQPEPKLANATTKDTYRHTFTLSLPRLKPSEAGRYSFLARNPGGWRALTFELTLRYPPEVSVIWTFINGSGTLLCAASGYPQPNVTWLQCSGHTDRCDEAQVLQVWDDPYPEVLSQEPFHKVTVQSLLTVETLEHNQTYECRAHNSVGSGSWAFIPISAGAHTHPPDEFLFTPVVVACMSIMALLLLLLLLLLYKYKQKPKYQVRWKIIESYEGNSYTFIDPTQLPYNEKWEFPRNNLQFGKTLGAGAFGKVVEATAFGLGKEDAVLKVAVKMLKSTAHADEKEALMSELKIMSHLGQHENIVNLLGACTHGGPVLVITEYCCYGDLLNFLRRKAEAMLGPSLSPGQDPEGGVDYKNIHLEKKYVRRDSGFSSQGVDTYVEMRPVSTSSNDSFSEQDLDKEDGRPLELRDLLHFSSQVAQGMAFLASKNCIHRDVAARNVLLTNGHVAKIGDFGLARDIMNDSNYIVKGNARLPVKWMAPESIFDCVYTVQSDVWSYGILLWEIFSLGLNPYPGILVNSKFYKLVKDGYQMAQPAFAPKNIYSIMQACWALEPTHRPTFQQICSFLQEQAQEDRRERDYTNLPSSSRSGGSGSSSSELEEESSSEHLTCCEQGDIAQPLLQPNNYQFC
T27 sequence (Q16644 whole entry): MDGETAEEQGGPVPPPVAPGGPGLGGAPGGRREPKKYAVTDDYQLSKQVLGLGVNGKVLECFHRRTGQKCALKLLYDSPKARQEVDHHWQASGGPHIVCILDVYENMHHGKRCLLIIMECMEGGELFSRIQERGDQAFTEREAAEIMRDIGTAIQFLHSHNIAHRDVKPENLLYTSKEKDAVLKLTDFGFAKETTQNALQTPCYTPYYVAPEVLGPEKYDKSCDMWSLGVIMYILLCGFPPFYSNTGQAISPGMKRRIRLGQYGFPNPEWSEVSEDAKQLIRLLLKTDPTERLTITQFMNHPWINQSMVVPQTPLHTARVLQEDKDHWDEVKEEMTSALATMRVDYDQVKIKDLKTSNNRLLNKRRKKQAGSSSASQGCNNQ

## CC(=O)Nc1nc2ccc(-c3cnc(C)c(NC(=O)OC4CCCCC4)c3)cc2s1 [PK68, cyclohexyl (5-(2-acetamidobenzo[d]thiazol-6-yl)-2-methylpyridin-3-yl)carbamate]
[1]; 1 μM
  Activity%: 96.81%
[1]
  activity at 1 µM: 97%
[2]; 1 μM
  Activity%: 88.47%
[2]
  activity at 1 µM: 88.6%
[3]; 1 μM
  Activity%: 97.95%
[3]
  activity at 1 µM: 99.7%
[4]; 1 μM
  Activity%: 99.02%
[4]
  activity at 1 µM: 99.7%
[5]; 1 μM
  Activity%: 84.20%
[5]
  activity at 1 µM: 86%
[6]; 1 μM
  Activity%: 74.18%
[6]
  activity at 1 µM: 74.3%
[7]; 1 μM
  Activity%: 92.54%
[7]
  activity at 1 µM: 95.8%
[8]; 1 μM
  Activity%: 111.50%
[8]
  activity at 1 µM: 114%
[9]; 1 μM
  Activity%: 71.06%
[9]
  activity at 1 µM: 71.1%
[10]; 1 μM
  Activity%: 104.83%
[10]
  activity at 1 µM: 105%
[11]; 1 μM
  Activity%: 104.41%
[11]
  activity at 1 µM: 110%
[12]; 1 μM
  Activity%: 107.76%
[12]
  activity at 1 µM: 110%
[13]; 1 μM
  Activity%: 81.73%
[13]
  activity at 1 µM: 83%
[14]; 1 μM
  Activity%: 85.85%
[14]
  activity at 1 µM: 86.9%
[15]; 1 μM
  Activity%: 101.85%
[15]
  activity at 1 µM: 102%
[16]; 1 μM
  Activity%: 95.49%
[16]
  activity at 1 µM: 95.5%
[17]; 1 μM
  Activity%: 111.93%
[17]
  activity at 1 µM: 118%
[18]; 1 μM
  Activity%: 92.60%
[18]
  activity at 1 µM: 96.9%
[19]; 1 μM
  Activity%: 92.74%
[19]
  activity at 1 µM: 98.2%
[20]; 1 μM
  Activity%: 93.86%
[20]
  activity at 1 µM: 94%
[21]; 1 μM
  Activity%: 60.01%
[21]
  activity at 1 µM: 60.5%
[22]; 1 μM
  Activity%: 74.35%
[22]
  activity at 1 µM: 78.2%
[23]; 1 μM
  Activity%: 103.50%
[23]
  activity at 1 µM: 105%
[24]; 1 μM
  Activity%: 96.14%
[24]
  activity at 1 µM: 99.2%
[25]; 1 μM
  Activity%: 103.56%
[25]
  activity at 1 µM: 104%
[26]; 1 μM
  Activity%: 99.15%
[26]
  activity at 1 µM: 101%
[27]; 1 μM
  Activity%: 100.67%
[27]
  activity at 1 µM: 102%
[28]; 1 μM
  Activity%: 99.01%
[28]
  activity at 1 µM: 99.6%
[29]; 1 μM
  Activity%: 100.48%
[29]
  activity at 1 µM: 101%
[30]; 1 μM
  Activity%: 97.43%
[30]
  activity at 1 µM: 99.7%
[31]; 1 μM
  Activity%: 100.79%
[31]
  activity at 1 µM: 103%
[32]; 1 μM
  Activity%: 100.99%
[32]
  activity at 1 µM: 101%
[33]; 1 μM
  Activity%: 88.58%
[33]
  activity at 1 µM: 88.8%
